Values quoted from earlier work, collected in US20050209250A1, “Therapeutic combinations of atypical antipsychotics with corticotropin releasing factor antagonists” (Pfizer Inc, priority 2004, published 2005).

What was measured:
[1] = not given; remark: listed apart in the source

## Cl.O.O=C1Cc2cc(CCN3CCN(c4nsc5ccccc45)CC3)c(Cl)cc2N1 [ziprasidone, 5-[2-[4-(1,2-benzisothiazol-3-yl)piperazin-1-yl]ethyl]-6-chloroindolin-2-one hydrochloride hydrate]
other
  protein binding: extensive
[1]; in vivo
  half-life: 6 to 7 h
[1]; taken with food
  Oral bioavailability: approximately 60%
